Values joined by “and” are separate entries in the source; they are usually repeats but may differ in a detail not shown here. Equal values may be shown once. After the bases stand the sugars from the 5' end (letter, count) and the backbone: PS all phosphorothioate, else s phosphorothioate and o phosphodiester by linkage. Methylation of C is not given here. l = locked nucleic acid (LNA); d = 2'-deoxy (DNA)
Legend:
[1] = target: MYH7; conditions: ASO, CC-2580, 5 µM
[2] = target: HTRA1; conditions: ASO, U251, 5 µM
[3] = target: ANGPTL2; conditions: ASO

“TCAGCTTGGCGATGATCT (sugars l2 d13 l3, PS)” was tested, and the target mRNA inhibition [1] was 64% and 40%.

With “TCAGCTTGGCGATGATCT (sugars lddldddddddlldldll, PS)” the target mRNA inhibition [1] was 14% and 8%.

“CTTGGCAATGATCTCATCC (sugars ldddddddldlldldldll, PS)” was tested, and the target mRNA inhibition [1] was -7% and -17%.

For “CAGCTTGGCGATGATCT (sugars llddddddddlddldll, PS)”, the target mRNA inhibition [1] was 37% and 33%.

Sequence “CTTCTTCTATCTACGCAT (sugars l4 d12 l2, PS)” has a target mRNA inhibition [2] of 86%.

AATGTGTAAGAAGTAC (sugars l4 d8 l4, PS) gave a target mRNA inhibition [2] of 83%.

“TCAGCTTGGCGATGATCT (sugars llddlddddddddldlll, PS)” was tested, and the target mRNA inhibition [1] was 51% and 37%.

“TCAGCTTGGCGATGATCT (sugars lddldlddddddldldll, PS)” was tested, and the target mRNA inhibition [1] was 4% and -7%.

“TCAGCTTGGCGATGATCT (sugars llddlddddddlddldll, PS)” was tested, and the target mRNA inhibition [1] was -37% and -45%.

For “CTTGGCAATGATCTCATCC (sugars l3 d13 l3, PS)”, the target mRNA inhibition [1] was 71% and 46%.

ACGCATTGTATCGACT (sugars l3 d10 l3, PS) was tested, and the target mRNA inhibition [2] was 95%.

With “CAGCTTGGCGATGATCT (sugars ldddddddddlldldll, PS)” the target mRNA inhibition [1] was 47% and 30%.

With “ATTGTATCGACTGCATTAG (sugars l2 d13 l4, PS)” the target mRNA inhibition [2] was 66%.

With “CAGCTTGGCGATGATCT (sugars ldlldddddddldddll, PS)” the target mRNA inhibition [1] was 38% and 20%.

“CTTGGCAATGATCTCATCC (sugars l2 d1 l1 d11 l4, PS)” was tested, and the target mRNA inhibition [1] was 81% and 60%.

With “CAGCTTGGCGATGATCT (sugars ldldldddddddlddll, PS)” the target mRNA inhibition [1] was 21% and 3%.

GAAGTACTTTAATAGCT (sugars l4 d9 l4, PS) was tested, and the target mRNA inhibition [2] was 47%.

“CTTGGCAATGATCTCATCC (sugars l2 d10 l2 d2 l3, PS)” was tested, and the target mRNA inhibition [1] was 74% and 49%.

“GTATCGACTGCATTAGTT (sugars l4 d12 l2, PS)” was tested, and the target mRNA inhibition [2] was 82%.

“CTTGGCAATGATCTCATCC (sugars ldddddllddddldlddll, PS)” was tested, and the target mRNA inhibition [1] was 67% and 52%.

With “CTTGGCAATGATCTCATCC (sugars lddddddlddldlddddll, PS)” the target mRNA inhibition [1] was 45% and 29%.

GCAATGTGTAAGAAGT (sugars l3 d10 l3, PS) showed a target mRNA inhibition [2] of 85%.

For “TGATGACTCAGTTAAAGG (sugars l3 d11 l4, PS)”, the target mRNA inhibition [2] was 80%.

With AGAAGTACTTTAATAGC (sugars l4 d9 l4, PS) the target mRNA inhibition [2] was 78%.

For “GCTTCTTCTATCTACGCA (sugars l1 d15 l2, PS)”, the target mRNA inhibition [2] was 57%.

“CTTGGCAATGATCTCATCC (sugars lddddddlddddlddddll, PS)” was tested, and the target mRNA inhibition [1] was 41% and 19%.

With “CAGCTTGGCGATGATCT (sugars ldldllddddddlddll, PS)” the target mRNA inhibition [1] was 31% and 17%.

“TCTTCTATCTACGCATT (sugars l3 d10 l4, PS)” showed a target mRNA inhibition [2] of 83%.

“TTCTATCTACGCATTGT (sugars l3 d11 l3, PS)” was tested, and the target mRNA inhibition [2] was 83%.

With TCTTCTATCTACGCAT (sugars l4 d9 l3, PS) the target mRNA inhibition [2] was 85%.

For “CAGCTTGGCGATGATCT (sugars lddlddddlddddddll, PS)”, the target mRNA inhibition [1] was 34% and 17%.

With “CTTGGCAATGATCTCATCC (sugars ldddddllldddddlddll, PS)” the target mRNA inhibition [1] was 29% and 20%.

“ACTCAGTTAAAGGAGGAGA (sugars l4 d13 l2, PS)” gave a target mRNA inhibition [2] of 33%.

In the case of “TCAGCTTGGCGATGATCT (sugars ldlddlddddddldldll, PS)”, the target mRNA inhibition [1] is reported as -25% and -42%.

“TCAGCTTGGCGATGATCT (sugars l2 d8 l1 d4 l3, PS)” was tested, and the target mRNA inhibition [1] was 39% and 27%.

“CTTGGCAATGATCTCATCC (sugars ldddldddddddlddldll, PS)” was tested, and the target mRNA inhibition [1] was 22% and 3%.

“CTTGGCAATGATCTCATCC (sugars lddldddddddldllddll, PS)” was tested, and the target mRNA inhibition [1] was 56% and 39%.

In the case of “CAGCTTGGCGATGATCT (sugars lddldldddddldldll, PS)”, the target mRNA inhibition [1] is reported as -1% and -24%.

In the case of “CAGCTTGGCGATGATCT (sugars lddldddddddllddll, PS)”, the target mRNA inhibition [1] is reported as -2% and -12%.

In the case of TATCGACTGCATTAGT (sugars l4 d8 l4, PS), the target mRNA inhibition [2] is reported as 81%.

With “CTTGGCAATGATCTCATCC (sugars lldlddddddddlddldll, PS)” the target mRNA inhibition [1] was 38% and 23%.

For “TCAGCTTGGCGATGATCT (sugars lddldlldlddddddlll, PS)”, the target mRNA inhibition [1] was 36% and 34%.

“TTCTTCTATCTACGCAT (sugars l4 d10 l3, PS)” was tested, and the target mRNA inhibition [2] was 85%.

With “CAGCTTGGCGATGATCT (sugars lddldddddddlddlll, PS)” the target mRNA inhibition [1] was 3% and -1%.

For “CAGCTTGGCGATGATCT (sugars l2 d9 l1 d3 l2, PS)”, the target mRNA inhibition [1] was 60% and 37%.

“CAGCTTGGCGATGATCT (sugars lddlldddddddlldll, PS)” was tested, and the target mRNA inhibition [1] was 38% and 22%.

With “CAGCTTGGCGATGATCT (sugars lddlddddlldddddll, PS)” the target mRNA inhibition [1] was 0% and -24%.

With “CAGCTTGGCGATGATCT (sugars lldddddldddldldll, PS)” the target mRNA inhibition [1] was 20% and 15%.

For “CAGCTTGGCGATGATCT (sugars lldlddddddlldddll, PS)”, the target mRNA inhibition [1] was 24% and 13%.

In the case of TCTACGCATTGTATCG (sugars l3 d11 l2, PS), the target mRNA inhibition [2] is reported as 99% and 92%.

In the case of “CAGCTTGGCGATGATCT (sugars lddlldddlldddddll, PS)”, the target mRNA inhibition [1] is reported as 36% and 19%.

With TTGTATCGACTGCATT (sugars l3 d9 l4, PS) the target mRNA inhibition [2] was 93%.

“TCAGCTTGGCGATGATCT (sugars l2 d10 l1 d1 l4, PS)” was tested, and the target mRNA inhibition [1] was 46% and 45%.

Work on “GTATCGACTGCATTAGT (sugars l4 d11 l2, PS)” yielded a target mRNA inhibition [2] of 84%.

For “CTTGGCAATGATCTCATCC (sugars ldddddlddlddlddldll, PS)”, the target mRNA inhibition [1] was -6% and -21%.

For “CAGCTTGGCGATGATCT (sugars lldddddddllddldll, PS)”, the target mRNA inhibition [1] was 17% and 3%.

“CTTGGCAATGATCTCATCC (sugars ldldlddddddlddlddll, PS)” was tested, and the target mRNA inhibition [1] was -4% and -29%.

For “CTTGGCAATGATCTCATCC (sugars lldddddddlddddldlll, PS)”, the target mRNA inhibition [1] was 67% and 43%.

“CAGCTTGGCGATGATCT (sugars lddlddddddlddllll, PS)” was tested, and the target mRNA inhibition [1] was 29% and 23%.

Sequence “AGAAGTACTTTAATAGCTC (sugars l4 d12 l3, PS)” has a target mRNA inhibition [2] of 84%.

“CTTGGCAATGATCTCATCC (sugars llddlddddddldldldll, PS)” was tested, and the target mRNA inhibition [1] was -25% and -43%.

In the case of “CAGCTTGGCGATGATCT (sugars l3 d2 l1 d9 l2, PS)”, the target mRNA inhibition [1] is reported as 75% and 59%.

“CAGCTTGGCGATGATCT (sugars lddlddddddlldldll, PS)” was tested, and the target mRNA inhibition [1] was 18% and 5%.

In the case of “CAGCTTGGCGATGATCT (sugars lddlddddddddldlll, PS)”, the target mRNA inhibition [1] is reported as 48% and 26%.

ATCGACTGCATTAGTT (sugars l4 d8 l4, PS) showed a target mRNA inhibition [2] of 56%.

“CAGCTTGGCGATGATCT (sugars ldldldldlddddddll, PS)” was tested, and the target mRNA inhibition [1] was -17% and -15%.

In the case of “TCAGCTTGGCGATGATCT (sugars lddldllddlddddddll, PS)”, the target mRNA inhibition [1] is reported as 16% and -2%.

Work on “TTGTATCGACTGCATTAG (sugars l3 d12 l3, PS)” yielded a target mRNA inhibition [2] of 77%.

With “CTTGGCAATGATCTCATCC (sugars lddddddddlddddlldll, PS)” the target mRNA inhibition [1] was 45% and 31%.

Work on “CTTCTTCTATCTACGCA (sugars l4 d11 l2, PS)” yielded a target mRNA inhibition [2] of 87%.

With “TCAGCTTGGCGATGATCT (sugars l2 d5 l1 d6 l4, PS)” the target mRNA inhibition [1] was 72% and 49%.

In the case of “CAGCTTGGCGATGATCT (sugars l1 d2 l1 d11 l2, PS)”, the target mRNA inhibition [1] is reported as 27% and 2%.

For “CTTGGCAATGATCTCATCC (sugars lddddddlddlldldldll, PS)”, the target mRNA inhibition [1] was 18% and -7%.

With “CAGCTTGGCGATGATCT (sugars lldllddddddldddll, PS)” the target mRNA inhibition [1] was 45% and 31%.

“TGTATCGACTGCATTAGT (sugars l3 d13 l2, PS)” showed a target mRNA inhibition [2] of 78%.

With “CAGCTTGGCGATGATCT (sugars lddlddddddllddlll, PS)” the target mRNA inhibition [1] was 16% and 14%.

“TCAGCTTGGCGATGATCT (sugars l2 d8 l1 d3 l4, PS)” was tested, and the target mRNA inhibition [1] was 48% and 46%.

For GTATCGACTGCATTAG (sugars l4 d8 l4, PS), the target mRNA inhibition [2] was 91%.

ATTGTATCGACTGCAT (sugars l4 d8 l4, PS) gave a target mRNA inhibition [2] of 83%.

“CTTGGCAATGATCTCATCC (sugars lddddddlddlddldldll, PS)” was tested, and the target mRNA inhibition [1] was 6% and -16%.

Sequence ATGTGTAAGAAGTACTT (sugars l4 d9 l4, PS) has a target mRNA inhibition [2] of 34%.

For “CAGCTTGGCGATGATCT (sugars lddllddlddddddlll, PS)”, the target mRNA inhibition [1] was 15% and -9%.

In the case of “CAGCTTGGCGATGATCT (sugars lddlldddddlldldll, PS)”, the target mRNA inhibition [1] is reported as 22% and 14%.

In the case of “CTTGGCAATGATCTCATCC (sugars ldddddllddddlddldll, PS)”, the target mRNA inhibition [1] is reported as 24% and 0%.

In the case of “CTTGGCAATGATCTCATCC (sugars lldddddddlddlddldll, PS)”, the target mRNA inhibition [1] is reported as 59% and 36%.

“ACTCAGTTAAAGGAGGAG (sugars l2 d12 l4, PS)” gave a target mRNA inhibition [2] of 44%.

With “TCAGCTTGGCGATGATCT (sugars lddldddddddldlddll, PS)” the target mRNA inhibition [1] was 37% and 32%.

For “TCTCCTAAGAGCAAAGCT (sugars l2 d14 l2, PS)”, the target mRNA inhibition ([3]; 5 µM) was 37.2% and the target mRNA inhibition ([3]; 25 µM) was 52.9%.

In the case of “TCAGCTTGGCGATGATCT (sugars l2 d10 l1 d2 l3, PS)”, the target mRNA inhibition [1] is reported as 67% and 55%.

For “CAGCTTGGCGATGATCT (sugars lddlddddddldlddll, PS)”, the target mRNA inhibition [1] was 11% and 15%.

For “TCAGCTTGGCGATGATCT (sugars ldldlldldddddddlll, PS)”, the target mRNA inhibition [1] was 35% and 16%.

“CTTGGCAATGATCTCATCC (sugars ldddddddlddldldldll, PS)” was tested, and the target mRNA inhibition [1] was 37% and 12%.

With GTAGGTAGGCGAGGAG (sugars l2 d12 l2, PS) the target mRNA inhibition ([3]; 5 µM) was 16.3% and the target mRNA inhibition ([3]; 25 µM) was -18.7%.

With “TTACATGCCGCCAGAGGAA (sugars l1 d16 l2, PS)” the target mRNA inhibition ([3]; 5 µM) was 45.6% and the target mRNA inhibition ([3]; 25 µM) was 52.3%.

With “TCAGTGGTGAGATGGGTCAC (sugars l1 d17 l2, PS)” the target mRNA inhibition ([3]; 5 µM) was 29.1% and the target mRNA inhibition ([3]; 25 µM) was 40.7%.

“GTGCCAAATCCTAGACA (sugars l2 d13 l2, PS)” showed a target mRNA inhibition ([3]; 5 µM) of 54.5% and a target mRNA inhibition ([3]; 25 µM) of 68.2%.

“AAGCATCATTGAAAATTC (sugars l4 d10 l4, PS)” showed a target mRNA inhibition ([3]; 5 µM) of 75.9% and a target mRNA inhibition ([3]; 25 µM) of 85.1%.

With “CAGCTTGGCGATGATCT (sugars lllddlddddddlddll, PS)” the target mRNA inhibition [1] was 25% and 0%.

For “CAGCTTGGCGATGATCT (sugars lddldldddddldddll, PS)”, the target mRNA inhibition [1] was 22% and 7%.
